Measurements as given in PubChem BioAssay (NCI).
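Five compound concentrations were applied to cells in 96-well plates for 48 hours; endpoints were derived by simple linear interpolation of the resulting dose-response curve. TGI: total growth inhibition.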

What was measured:
Assay in all cases: NCI tumour cell line growth inhibition, 48 h
[1] = system: DMS 273 small cell lung
[2] = system: DLD-1 colon
[3] = system: XF 498 CNS
[4] = system: DMS 114 small cell lung
[5] = system: HOP-18 NSCLC
[6] = system: P388 leukemia
[7] = system: SN12K1 renal
[8] = system: P388/ADR leukemia

SMILES	TGI [1] [µM]	TGI [2] [µM]	TGI [3] [µM]	TGI [4] [µM]	TGI [5] [µM]	TGI [6] [µM]	TGI [7] [µM]	TGI [8] [µM]
Cc1cc(=O)oc2cc(OCCCOc3ccc4c(C)cc(=O)oc4c3)ccc12	> 100	> 100	> 100	> 100				
COC(=O)[C@H](CC(C)C)NC(=O)[C@H](Cc1ccccc1)N1CC2C=CC1C2 (some centres not stated)	> 100		> 100	> 100	> 100			
O=C1C=C(Nc2ccccc2C(=O)CC(=O)C(=O)Nc2ccc(Cl)cc2)c2ccccc2C1=O	31.1	35.7	28.6	16.8	8.72			
O=C(CCBr)N1CCN(C(=O)CCBr)CC1	168	202	133	140	238	293	196	181
CC1=NN(C(=O)Cc2ccccc2)C(=O)/C1=C\c1ccc([N+](=O)[O-])cc1		> 100	> 100	> 100				
CC(C)(C)N/N=C(\C(=O)Nc1cccc(Cl)c1)C1C(=O)Nc2ccccc2S1=O (configuration not stated)	> 100	> 100	> 100	> 100	> 100			
COc1cccc2c1C(=O)c1c(O)c3c(c(O)c1C2=O)C[C@@](O)(C(C)=O)CC3S(=O)(=O)O (some centres not stated)	> 100	> 100	> 100	> 100	> 100			
COc1ccc2c(c1)Oc1cc(O)ccc1[C@H]2c1ccccc1C(=O)NC(C)c1ccccc1 (some centres not stated)	28.4	43.4		24.9				
O=C(Cc1nc2ccc(C(=O)c3ccccc3)cc2[nH]c1=O)C(=O)Nc1nc2ccccc2[nH]1	> 100			79.4	> 100			
CCC12CCCN(Cc3ccccc3)C1c1c(n(C)c3ccccc13)C(CO)C2 (configuration not stated)	89.7	> 257	79.7	84.5				
CCc1cc(C)cc2[n+]1CC=C2	6.55		20.4	44.3	0.0991			
Nc1nc(NCCOCP(=O)(O)O)c([N+](=O)[O-])c(=O)[nH]1	> 100	> 100	> 100		> 100			
